Source: the supplement of paper PMC11208160

Assay: recombinant UMI read abundance after kanamycin selection (control-corrected) (log10(CPM+1)); higher = more efficient recombination; extreme values may be limits of the assay; sequences stand for … in AGTGCAGAGAAAATCGGCCAGTTTTCTCTGCCTGCAGTCCGCATGCCGTGGGACCCCTTGGGTTCTAACCTGTTGCCTAGATTTATGCAGCGGACTGCCTTTCTCCCAAAGTGATAAACCGG…AGGTTGGTTTCACT; site = the 11-nt donor
Summary of the method: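 Two replicates each of selected and unselected plating were used in this pooled Escherichia coli screen of donor and donor-binding-loop pairs for the IS621 bridge recombinase. Selection was with IPTG (0.07 mM) and kanamycin. Counts of recombinant UMIs, amplified across the donor–target junction, were converted to CPM, averaged, scaled by control-derived factors and reported as log10(CPM+1).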
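Further: IS621 bridge recombinase in Escherichia coli cells against a fixed T5 target plasmid.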

CTCTATACATGGACCGGTTTTCCCGGTAATCCGTATTTGCT (site CTCTAAACTAG)
recombinant UMI read abundance (log10): 0

CTCTATACATGGACCGGTTTTCCCGGTAATCCGTATTTGCT (site CTCTACACTAG)
recombinant UMI read abundance (log10): 0.592

CTCTATACATGGACCGGTTTTCCCGGTAATCCGTATTTGCT (site CTCTAGACTAG)
recombinant UMI read abundance (log10): 0

CTCTATACATGGACCGGTTTTCCCGGTAATCCGTATTTGCT (site CTCTATACTAG)
recombinant UMI read abundance (log10): 2.08

CTCTCTACATGGACCGGTTTTCCCGGTAATCCGTATTTGAG (site CTCACTACTCT)
recombinant UMI read abundance (log10): 0.0192

CTCTCTACATGGACCGGTTTTCCCGGTAATCCGTATTTGAG (site CTCCCTACTCT)
recombinant UMI read abundance (log10): 0.00919

CTCTCTACATGGACCGGTTTTCCCGGTAATCCGTATTTGAG (site CTCGCTACTCT)
recombinant UMI read abundance (log10): 0.00461

CTCTCTACATGGACCGGTTTTCCCGGTAATCCGTATTTGAG (site CTCTCTACTCT)
recombinant UMI read abundance (log10): 0.0107

CTCTGTTCATGGACCGGTTTTCCCGGTAATCCGTATTTGCC (site CTCTGTTCTGG)
recombinant UMI read abundance (log10): 1.45

CTCTTCACATGGACCGGTTTTCCCGGTAATCCGTATTTGGC (site CTCTTCACTGC)
recombinant UMI read abundance (log10): 2.73

CTGAAAACATGGACCGGTTTTCCCGGTAATCCGTATTTGCA (site CTGAAAACTTG)
recombinant UMI read abundance (log10): 1.48

CTGAAAACATGGACCGGTTTTCCCGGTAATCCGTATTTGCA (site CTGCAAACTTG)
recombinant UMI read abundance (log10): 0

CTGAAAACATGGACCGGTTTTCCCGGTAATCCGTATTTGCA (site CTGGAAACTTG)
recombinant UMI read abundance (log10): 0

CTGAAAACATGGACCGGTTTTCCCGGTAATCCGTATTTGCA (site CTGTAAACTTG)
recombinant UMI read abundance (log10): 0

CTGAATCCATGGACCGGTTTTCCCGGTAATCCGTATTTGTT (site CAGAATCCTAA)
recombinant UMI read abundance (log10): 0.0107

CTGAATCCATGGACCGGTTTTCCCGGTAATCCGTATTTGTT (site CCGAATCCTAA)
recombinant UMI read abundance (log10): 0

CTGAATCCATGGACCGGTTTTCCCGGTAATCCGTATTTGTT (site CGGAATCCTAA)
recombinant UMI read abundance (log10): 0

CTGAATCCATGGACCGGTTTTCCCGGTAATCCGTATTTGTT (site CTGAATCCTAA)
recombinant UMI read abundance (log10): 1.5

CTGAATGCATGGACCGGTTTTCCCGGTAATCCGTATTTGTT (site CGGAATCCTAA)
recombinant UMI read abundance (log10): 0.00219

CTGAATGCATGGACCGGTTTTCCCGGTAATCCGTATTTGTT (site CTGAATGCTAA)
recombinant UMI read abundance (log10): 1.94

CTGCATACATGGACCGGTTTTCCCGGTAATCCGTATTTGTA (site CTGCATACTTA)
recombinant UMI read abundance (log10): 1.59

CTGCCGACATGGACCGGTTTTCCCGGTAATCCGTATTTGCG (site CTGCCGACTCG)
recombinant UMI read abundance (log10): 1.83

CTGCTAACATGGACCGGTTTTCCCGGTAATCCGTATTTGGA (site CTACTAACTTC)
recombinant UMI read abundance (log10): 1.16

CTGCTAACATGGACCGGTTTTCCCGGTAATCCGTATTTGGA (site CTCCTAACTTC)
recombinant UMI read abundance (log10): 0.394

CTGCTAACATGGACCGGTTTTCCCGGTAATCCGTATTTGGA (site CTGCTAACTTC)
recombinant UMI read abundance (log10): 1.62

CTGCTAACATGGACCGGTTTTCCCGGTAATCCGTATTTGGA (site CTTCTAACTTC)
recombinant UMI read abundance (log10): 0.563

CTGCTCACATGGACCGGTTTTCCCGGTAATCCGTATTTGCC (site CTGCTCACTGG)
recombinant UMI read abundance (log10): 2.59

CTGGAGTCATGGACCGGTTTTCCCGGTAATCCGTATTTGCC (site CAGGAGTCTGG)
recombinant UMI read abundance (log10): 2.88

CTGGAGTCATGGACCGGTTTTCCCGGTAATCCGTATTTGCC (site CCGGAGTCTGG)
recombinant UMI read abundance (log10): 1.26
